Each structure is given as a SMILES string.

Chain of PHGDH (O43175 whole entry): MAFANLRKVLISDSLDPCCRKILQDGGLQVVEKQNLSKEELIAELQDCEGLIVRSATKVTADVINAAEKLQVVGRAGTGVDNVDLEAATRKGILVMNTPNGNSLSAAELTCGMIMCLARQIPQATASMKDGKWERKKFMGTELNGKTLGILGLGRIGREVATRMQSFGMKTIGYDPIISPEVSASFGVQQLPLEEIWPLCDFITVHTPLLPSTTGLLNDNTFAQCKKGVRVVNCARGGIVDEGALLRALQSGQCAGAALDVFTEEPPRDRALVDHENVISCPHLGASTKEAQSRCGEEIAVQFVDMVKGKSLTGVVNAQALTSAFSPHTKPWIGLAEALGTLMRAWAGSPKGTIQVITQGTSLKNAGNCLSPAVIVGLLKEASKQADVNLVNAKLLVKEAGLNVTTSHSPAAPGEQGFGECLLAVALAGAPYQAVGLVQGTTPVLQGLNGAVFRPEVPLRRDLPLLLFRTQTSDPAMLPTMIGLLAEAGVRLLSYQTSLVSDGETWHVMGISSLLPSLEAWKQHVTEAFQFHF

The test addresses PHGDH (Homo sapiens (Human), UniProt O43175). The test can be described thus: PHGDH inhibition, coupled assay with PSAT1/PSPH and diaphorase/resazurin readout. Format: biochemical. Particulars: Table E9; mixture with PSAT1, PSPH; diaphorase/resazurin reporter.
As to `OCc1ccnc(NC(=S)N2CCN(c3cccc(C(F)(F)F)c3)CC2)c1` [Compound 27], the half-inhibitory concentration (IC50) was no less than 20 µM.
With `Cc1cc(C)nc(NC(=S)N2CCN(c3ccc(C(F)(F)F)cc3Cl)CC2)c1` [Compound 212] the figure was 5 to 10 µM.
With `S=C(Nc1cc(Cl)ccn1)N1CCN(c2ccc(Cl)cc2Cl)CC1` [Compound 199] the figure was no less than 20 µM.
To `Cc1ccnc(NC(=S)N2CCCc3ccc(C(F)(F)F)cc32)c1` [Compound 60] belongs no less than 20 µM; to `Cc1cc(C)nc(NC(=S)N2CCN(c3cccc(C#N)c3)CC2)c1` [Compound 66], 10 to 20 µM.
For `Cc1ccc2nc(NC(=S)N3CCN(c4cccc(C(F)(F)F)c4)CC3)[nH]c2c1` [Compound 242], the half-maximal inhibitory concentration (IC50) was less than 5 µM.
With `Cc1cc(C)nc(NC(=S)N2CCN(C(=O)c3ccc(C(F)(F)F)cc3)CC2)c1` [Compound 265] the figure was less than 5 µM.
To `Cc1cc(C)nc(NC(=S)N2CCN(c3nccc4ccccc34)CC2)c1` [Compound 132] belongs 10 to 20 µM; to `Cc1cc(C)nc(NC(=S)N2CCN(c3cccc(Cl)c3Cl)CC2)c1` [Compound 93], 5 to 10 µM.
With `Cc1ccnc(NC(=S)N2CCN(c3ccc(Cl)cc3Cl)CC2)c1` [Compound 172] the figure was 5 to 10 µM.
As to `Cc1cc(C)nc(NC(=S)N2CCN(c3nccc(C(F)(F)F)n3)CC2)c1` [Compound 117], the half-inhibitory concentration (IC50) was less than 5 µM.
To `Cc1cc(C)nc(NC(=S)N2CCN(c3ccc(C(F)(F)F)cc3C(F)(F)F)CC2)c1` [Compound 209] belongs 5 to 10 µM.
With `FC(F)(F)c1cnc(N2CCN(C(=S)Nc3cc(Cl)ccn3)CC2)c(Cl)c1` [Compound 202] the figure was 10 to 20 µM; with `Cc1ccnc(NC(=S)N2CCN(c3ccc(F)cc3)CC2)c1` [Compound 7], no less than 20 µM.
To `Cc1ccnc(C(=S)N2CCN(c3cccc(C(F)(F)F)c3)CC2)c1` [Compound 62] belongs no less than 20 µM; to `Cc1cc(C)nc(NC(=S)N2CCC(CN3CCCCC3)CC2)c1` [Compound 271], no less than 20 µM; to `Cc1cc(C)nc(NC(=S)N2CCN(c3ncccc3Cl)CC2)c1` [Compound 79], 10 to 20 µM.
In the case of `Cc1cc(C)nc(NC(=S)N2CCN(c3ccc(C(F)(F)F)cc3[N+](=O)[O-])CC2)c1` [Compound 110], the IC50 fell in the range of 5 to 10 µM.
To `Cc1cc(C)nc(NC(=S)N2CCN(c3ccc(F)c(F)c3F)CC2)c1` [Compound 208] belongs 10 to 20 µM.
Take `FC(F)(F)c1cccc(N2CCN(C(=S)Nc3cc(C(F)(F)F)ccn3)CC2)c1` [Compound 26]: the IC50 lay in the range of 5 to 10 µM.
In the case of `Cc1cc(C)nc(NC(=S)N2CCN(c3ccc(Cl)c(C(F)(F)F)c3)CC2)c1` [Compound 211], the IC50 fell in the range of 10 to 20 µM.
Take `FC(F)(F)c1cccc(N2CCN(C(=S)Nc3nc(-c4ccccc4)c[nH]3)CC2)c1` [Compound 230]: the IC50 is less than 5 µM.
As to `S=C(Nc1cc(Cl)ccn1)N1CCN(c2ccc(Cl)c(Cl)c2)CC1` [Compound 200], the IC50 fell in the range of 10 to 20 µM.
With `Cc1cc(C)nc(NC(=S)N2CCN(c3ccccn3)CC2)c1` [Compound 77] the figure was no less than 20 µM.
In the case of `FC(F)(F)c1cccc(N2CCN(C(=S)Nc3ccc4ccccc4n3)CC2)c1` [Compound 34], the IC50 fell in the range of 10 to 20 µM.
With `Cc1cc(C)nc(NC(=S)N2CCN(c3nc(C)cnc3C)CC2)c1` [Compound 104] the figure was no less than 20 µM; with `CC(=O)c1ccc(N2CCN(C(=S)Nc3cc(C)ccn3)CC2)cc1` [Compound 14], no less than 20 µM.
Consider `O=[N+]([O-])c1cc(C(F)(F)F)ccc1N1CCN(C(=S)Nc2cc(Cl)ccn2)CC1` [Compound 201], for which the IC50 lay within 10 to 20 µM.
With `Cc1cc(C)nc(NC(=S)N2CCN(c3cccc4[nH]ccc34)CC2)c1` [Compound 155] the figure was 10 to 20 µM; with `Cc1cc(C)nc(NC(=S)N2CCN(Cc3cccc(Cl)c3)CC2)c1` [Compound 284], 10 to 20 µM; with `Cc1cc(C)nc(NC(=S)N2CCN(c3ccc(Cl)nn3)CC2)c1` [Compound 165], no less than 20 µM.
With `Cc1cc(C)nc(NC(=S)N2CCN(c3ccc4c(c3)OCO4)CC2)c1` [Compound 167] the figure was no less than 20 µM.
`Cc1cc(C)nc(NC(=S)N2CCN(Cc3cccc(F)c3)CC2)c1` [Compound 277]: the IC50 lay in the range of 10 to 20 µM.
To `Cc1ccnc(NC(=O)N2CCN(c3cccc(C(F)(F)F)c3)CC2)c1` [Compound 3] belongs no less than 20 µM; to `Cc1cc(C)nc(NC(=S)N2CCN(c3nc4ccccc4s3)CC2)c1` [Compound 106], 10 to 20 µM.
With `Cc1cc(C)nc(NC(=S)N2CCN(c3cccc4cnccc34)CC2)c1` [Compound 147] the figure was 10 to 20 µM; with `Cc1cc(C)nc(NC(=S)N2CCN(c3ccc([N+](=O)[O-])c4cccnc34)CC2)c1` [Compound 123], no less than 20 µM; with `Cc1cc2nc(NC(=S)N3CCN(c4cccc(C(F)(F)F)c4)CC3)[nH]c2cc1C` [Compound 241], no less than 20 µM.
To `Cc1cc(C)nc(NC(=S)N2CCN(c3nccc4occc34)CC2)c1` [Compound 103] belongs 10 to 20 µM; to `COc1ccccc1N[S+](=O)([O-])c1cc(NC(=O)Cc2ccc(Cl)cc2Cl)ccc1N1CCCC1` [Compound 248], no less than 20 µM.
Turning to `Cc1cc(C)nc(NC(=S)N2CCN(Cc3ccc(C)c(C(F)(F)F)c3)CC2)c1` [Compound 302], the IC50 is 5 to 10 µM.
For `Cc1cc(C)nc(NC(=S)N2CCN(c3ccc(C(=O)O)cc3)CC2)c1` [Compound 101], the concentration for half-maximal inhibition (IC50) was no less than 20 µM.
In the case of `Cc1cc(C)nc(NC(=S)N2CCN(c3ncccc3C(F)(F)F)CC2)c1` [Compound 113], the concentration for half-maximal inhibition (IC50) lay in the range of 10 to 20 µM.
With `Cc1cc(NC(=S)N2CCN(c3cccc(C(F)(F)F)c3)CC2)nc2ccccc12` [Compound 127] the figure was no less than 20 µM.
For the compound `COc1cccc(NC(=S)N2CCN(c3cc(Cl)cc(Cl)c3)CC2)n1` [Compound 187], the IC50 is no less than 20 µM.
Turning to `Cc1ccnc(NC(=S)N2CCCC(Nc3cccc(C(F)(F)F)c3)C2)c1` (centres unmarked) [Compound 58], the 50% inhibitory concentration (IC50) was 5 to 10 µM.
Turning to `Cc1cc(C)nc(NC(=S)N2CCN(c3cccc([S+](C)[O-])c3)CC2)c1` (centres unmarked) [Compound 139], the IC50 is no less than 20 µM.
To `Cc1ccnc(NC(=S)N2CCN(c3ccc4ccccc4n3)CC2)c1` [Compound 177] belongs 10 to 20 µM; to `Cc1cc(C)nc(NC(=S)N2CCN(c3cc(C#N)cc(C#N)c3)CC2)c1` [Compound 205], no less than 20 µM; to `S=C(Nc1cc(Cl)ccn1)N1CCN(c2cc(Cl)cc(Cl)c2)CC1` [Compound 197], no less than 20 µM.
With `Cc1ccnc(NC(=S)N2CCNCC2)c1` [Compound 53] the figure was no less than 20 µM.
To `Cc1ccnc(NC(=S)N2CCN(c3cc(F)cc(Cl)c3)CC2)c1` [Compound 141] belongs less than 5 µM; to `COc1ccc(CN2CCN(C(=S)Nc3cc(C)cc(C)n3)CC2)cc1` [Compound 293], 10 to 20 µM.
As for `COc1ccnc(NC(=S)N2CCN(c3cc(C(F)(F)F)cc(C(F)(F)F)c3)CC2)c1` [Compound 179], the concentration for half-maximal inhibition (IC50) is less than 5 µM.
To `Cc1ccc(CN2CCN(C(=S)Nc3cc(C)cc(C)n3)CC2)cc1` [Compound 292] belongs less than 5 µM; to `Cc1cc(C)nc(NC(=S)N2CCN(c3ccc(Cl)cc3F)CC2)c1` [Compound 219], 5 to 10 µM.
With `Cc1cc(C)nc(NC(=S)N2CCN(Cc3ccccc3C(F)(F)F)CC2)c1` [Compound 278] the figure was 10 to 20 µM; with `Cc1ccnc(NC(=S)N2CCc3cccc(C(F)(F)F)c3C2)c1` [Compound 59], 10 to 20 µM; with `Nc1nc(NC(=S)N2CCN(c3cccc(C(F)(F)F)c3)CC2)n[nH]1` [Compound 231], no less than 20 µM.
To `Cc1ccnc(NC(=S)N2CCN(c3ccc(Cl)cc3)CC2)c1` [Compound 8] belongs no less than 20 µM.
With `Cc1cc(C)nc(NC(=S)N2CCN(c3ccc([S+](C)(=O)[O-])cc3F)CC2)c1` [Compound 109], the IC50 was no less than 20 µM.
To `FC(F)(F)c1cccc(N2CCN(C(=S)Nc3cc[nH]n3)CC2)c1` [Compound 237] belongs no less than 20 µM.
